In patent US10800791B2, “Triazole ACC inhibitors and uses thereof” (Gilead Apollo, LLC, priority 2015, dated 2020):
In brackets after ≈: the same amount, converted by molar mass. Where two headings read alike, the source gives them in different places.

Key:
Septoria tritici (St) = experiment: Growth inhibition assay of fungal pathogens, St; assay type: cell-based; conditions: Zymoseptoria tritici, 48 h, Septoria tritici, read-out: Concentration at 90% Inhibition St
How it was run: (§1)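 Percent inhibition derived at 48 hours from OD600 and visual scores versus 2% DMSO control, with media+DMSO blank as background. Spore inocula in 17% V8 medium were sized from 48 h growth curves; compounds tested at final 50/10/2 or 2/0.4/0.08 ppm.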

C. albicans = experiment: Antifungal Activity Assay (broth microtiter MIC), C. albicans; assay type: cell-based, Candida albicans; conditions: Candida albicans, ATCC90028, 48 h, ATCC 90028, 3 replicates, MIC recorded at 48 h, read-out: MIC, C. albicans ATCC 90028
How it was run: (§2)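 MIC read by eye at 48 h, comparing challenged wells with the growth control. Yeasts grown overnight on Sabouraud dextrose agar at 35° C, suspended in RPMI 1640+MOPS and added at 2.5×10^3 CFU/mL final, following CLSI M27-A3.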

C. parapsilosis = experiment: Antifungal Activity Assay (broth microtiter MIC), C. parapsilosis; assay type: cell-based, Candida parapsilosis; conditions: Lodderomyces parapsilosis, ATCC22019, 48 h, ATCC 22019, 3 replicates, MIC recorded at 48 h, read-out: MIC, C. parapsilosis ATCC 22019
How it was run: as §2

Botrtyis cinerea (Bc) = experiment: Growth inhibition assay of fungal pathogens, Bc; assay type: cell-based; conditions: 48 h, Botrtyis cinerea, read-out: Concentration at 90% Inhibition Bc
How it was run: as §1

Diplodia maydis (Dm) = experiment: Growth inhibition assay of fungal pathogens, Dm; assay type: cell-based; conditions: Stenocarpella maydis, 48 h, Diplodia maydis, read-out: Concentration at 90% Inhibition Dm
How it was run: as §1

[1] = test system: Collectotrichum graminicola (Cg); experiment: Growth inhibition assay of fungal pathogens, Cg; assay type: cell-based; conditions: 48 h, Collectotrichum graminicola, read-out: Concentration at 90% Inhibition Cg
How it was run: as §1

[2] = test system: Phytophthora capsici (Pc); experiment: Growth inhibition assay of fungal pathogens, Pc; assay type: cell-based; conditions: 48 h, read-out: Concentration at 90% Inhibition Pc
How it was run: as §1

fungal (fACC2) = fungal (fACC2) (UniProt Q00955); conditions: read-out: fACC2 (in vitro ACC2 Inhibition Assay, IC50), ADP-Glo, 5 nM ACC2, 20 μM ATP, 20 μM acetyl-CoA
[3] = test system: Fusarium moniliforme (Fm); experiment: Growth inhibition assay of fungal pathogens, Fm; assay type: cell-based; conditions: Fusarium verticillioides, 48 h, Fusarium moniliforme, read-out: Concentration at 90% Inhibition Fm
How it was run: as §1

[4] = test system: Fusarium virguliforme (Fv); experiment: Growth inhibition assay of fungal pathogens, Fv; assay type: cell-based; conditions: 48 h, read-out: Concentration at 90% Inhibition Fv
How it was run: as §1

C. krusei = experiment: Antifungal Activity Assay (broth microtiter MIC), C. krusei; assay type: cell-based, Candida krusei; conditions: Pichia kudriavzevii, ATCC6258, 48 h, ATCC 6258, 3 replicates, MIC recorded at 48 h, read-out: MIC, C. krusei ATCC 6258
How it was run: as §2

[5] = growth inhibition at 48 hours vs 2% DMSO control
[6] = growth inhibition vs 2% DMSO control at 48 hours

Sequence of fungal (fACC2) (Q00955 whole entry): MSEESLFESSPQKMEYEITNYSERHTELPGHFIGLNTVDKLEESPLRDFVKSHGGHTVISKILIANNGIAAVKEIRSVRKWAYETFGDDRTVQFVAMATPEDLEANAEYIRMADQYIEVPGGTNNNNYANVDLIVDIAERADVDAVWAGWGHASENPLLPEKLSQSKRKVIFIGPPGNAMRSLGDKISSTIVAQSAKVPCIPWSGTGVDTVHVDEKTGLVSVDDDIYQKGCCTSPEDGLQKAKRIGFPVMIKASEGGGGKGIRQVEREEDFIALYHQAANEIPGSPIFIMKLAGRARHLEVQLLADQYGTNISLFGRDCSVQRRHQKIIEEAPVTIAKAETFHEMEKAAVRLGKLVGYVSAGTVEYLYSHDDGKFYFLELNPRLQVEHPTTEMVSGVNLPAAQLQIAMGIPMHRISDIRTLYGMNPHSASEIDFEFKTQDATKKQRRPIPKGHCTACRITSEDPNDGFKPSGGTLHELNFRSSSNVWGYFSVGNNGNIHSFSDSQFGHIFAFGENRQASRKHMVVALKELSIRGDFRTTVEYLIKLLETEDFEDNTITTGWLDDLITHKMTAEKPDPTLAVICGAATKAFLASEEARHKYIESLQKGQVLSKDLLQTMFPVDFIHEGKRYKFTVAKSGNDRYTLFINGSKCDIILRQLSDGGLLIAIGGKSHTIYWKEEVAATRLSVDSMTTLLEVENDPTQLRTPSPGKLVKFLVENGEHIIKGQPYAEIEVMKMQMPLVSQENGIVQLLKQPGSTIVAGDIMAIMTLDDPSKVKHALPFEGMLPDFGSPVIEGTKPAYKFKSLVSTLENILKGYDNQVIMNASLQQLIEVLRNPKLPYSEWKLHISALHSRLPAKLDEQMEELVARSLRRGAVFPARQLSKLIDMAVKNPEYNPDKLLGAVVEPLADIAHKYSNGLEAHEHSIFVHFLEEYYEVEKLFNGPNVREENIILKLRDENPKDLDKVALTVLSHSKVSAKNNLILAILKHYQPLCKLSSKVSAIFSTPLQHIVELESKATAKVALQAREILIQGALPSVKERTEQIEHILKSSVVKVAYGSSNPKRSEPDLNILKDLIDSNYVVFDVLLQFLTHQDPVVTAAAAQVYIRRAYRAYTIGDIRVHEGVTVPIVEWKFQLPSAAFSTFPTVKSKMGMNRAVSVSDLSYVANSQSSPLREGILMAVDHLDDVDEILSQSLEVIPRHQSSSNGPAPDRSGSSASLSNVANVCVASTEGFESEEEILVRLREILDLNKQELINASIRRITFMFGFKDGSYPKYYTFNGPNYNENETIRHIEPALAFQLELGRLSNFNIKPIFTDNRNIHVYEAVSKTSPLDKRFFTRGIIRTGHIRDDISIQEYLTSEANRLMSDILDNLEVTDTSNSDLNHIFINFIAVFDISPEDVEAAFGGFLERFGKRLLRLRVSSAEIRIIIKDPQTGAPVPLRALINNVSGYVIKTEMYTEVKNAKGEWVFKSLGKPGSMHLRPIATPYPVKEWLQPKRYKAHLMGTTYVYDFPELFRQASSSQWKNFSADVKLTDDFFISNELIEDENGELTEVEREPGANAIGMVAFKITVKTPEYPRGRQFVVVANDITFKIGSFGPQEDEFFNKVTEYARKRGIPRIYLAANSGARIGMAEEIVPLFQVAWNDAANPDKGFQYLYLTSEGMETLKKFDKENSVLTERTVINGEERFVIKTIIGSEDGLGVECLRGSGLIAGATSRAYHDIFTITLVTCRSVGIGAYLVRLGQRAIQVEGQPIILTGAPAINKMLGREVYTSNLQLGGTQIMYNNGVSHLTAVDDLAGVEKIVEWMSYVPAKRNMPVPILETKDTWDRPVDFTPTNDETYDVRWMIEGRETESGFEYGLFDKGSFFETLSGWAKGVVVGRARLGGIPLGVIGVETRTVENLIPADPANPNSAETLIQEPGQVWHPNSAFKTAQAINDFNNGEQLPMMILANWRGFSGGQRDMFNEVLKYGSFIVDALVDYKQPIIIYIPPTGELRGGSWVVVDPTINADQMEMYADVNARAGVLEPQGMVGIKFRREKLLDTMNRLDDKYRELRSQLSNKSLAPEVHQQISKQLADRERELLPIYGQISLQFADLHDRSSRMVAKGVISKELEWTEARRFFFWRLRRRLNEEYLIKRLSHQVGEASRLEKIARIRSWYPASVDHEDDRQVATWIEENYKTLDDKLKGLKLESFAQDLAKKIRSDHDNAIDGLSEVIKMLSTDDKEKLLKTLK

**Q.** For COc1ccc(F)cc1[C@H](Cn1c(=O)n(C(C)(C)C(=O)NC(C)C)c(=O)c2c(C)c(-n3nccn3)sc21)OCCC#N [Compound I-91, (R)-2-(1-(2-(2-cyanoethoxy)-2-(5-fluoro-2-methoxy-phenyl)ethyl)-5-methyl-2,4-dioxo-6-(2H-1,2,3-triazol-2-yl)-1,4-dihydro-thieno[2,3-d]pyrimidin-3(2H)-yl)-N-isopropyl-2-methylpropanamide], which IC90 (Septoria tritici (St); [5]) is on record?
**A.** The IC90 was greater than 50 µg/mL.

**Q.** What about the IC90 (Septoria tritici (St); [6]) of the same compound?
**A.** The IC90 was greater than 50 µg/mL.

**Q.** What about the MIC (C. albicans; Table 3a) of the same compound?
**A.** Its MIC is 0.25 to 1 µg/mL (≈ 0.418 to 1.67 µM).

**Q.** What about the MIC (C. albicans; Table 3b (additional results)) of the same compound?
**A.** The MIC was 1.01 to 2 µg/mL (≈ 1.69 to 3.35 µM).

**Q.** And the MIC (C. parapsilosis; Table 3a)?
**A.** Its MIC is 0.06 to 0.24 µg/mL (≈ 0.1 to 0.402 µM).

**Q.** And the MIC (C. parapsilosis; Table 3b (additional results))?
**A.** Its MIC is 0.25 to 1 µg/mL (≈ 0.418 to 1.67 µM).

**Q.** What about the IC90 (Botrtyis cinerea (Bc); [5]) of the same compound?
**A.** The IC90 was 0.4 µg/mL (≈ 0.669 µM).

**Q.** What about the IC90 (Botrtyis cinerea (Bc); [6]) of the same compound?
**A.** The IC90 was 0.4 µg/mL (≈ 0.669 µM).

**Q.** What about the IC90 (Diplodia maydis (Dm); [5]) of the same compound?
**A.** The IC90 was 0.08 µg/mL (≈ 0.134 µM).

**Q.** What about the IC90 (Diplodia maydis (Dm); [6]) of the same compound?
**A.** Its IC90 is 0.08 µg/mL (≈ 0.134 µM).

**Q.** And the IC90 [1, 5]?
**A.** Its IC90 is 0.08 µg/mL (≈ 0.134 µM).

**Q.** What about the IC90 [1, 6] of the same compound?
**A.** Its IC90 is 0.08 µg/mL (≈ 0.134 µM).

**Q.** What about the IC90 [2, 5] of the same compound?
**A.** The IC90 was 2 µg/mL (≈ 3.35 µM).

**Q.** And the IC90 [2, 6]?
**A.** Its IC90 is 10 µg/mL (≈ 16.7 µM).

**Q.** And the IC50 (fungal (fACC2); Table 2a)?
**A.** The IC50 was 1 to 5 nM.

**Q.** What about the IC50 (fungal (fACC2); Table 2b, additional results) of the same compound?
**A.** The IC50 was 1 to 5 nM.

**Q.** And the IC90 [3, 5]?
**A.** Its IC90 is 0.08 µg/mL (≈ 0.134 µM).

**Q.** And the IC90 [3, 6]?
**A.** The IC90 was 0.08 µg/mL (≈ 0.134 µM).

**Q.** And the IC90 [4, 5]?
**A.** Its IC90 is 0.08 µg/mL (≈ 0.134 µM).

**Q.** And the IC90 [4, 6]?
**A.** The IC90 was 0.08 µg/mL (≈ 0.134 µM).

**Q.** And the MIC (C. krusei; Table 3a)?
**A.** The MIC was 0.06 to 0.24 µg/mL (≈ 0.1 to 0.402 µM).

**Q.** What about the MIC (C. krusei; Table 3b (additional results)) of the same compound?
**A.** Its MIC is 0.25 to 1 µg/mL (≈ 0.418 to 1.67 µM).
